In one series the target is T1, BTK (C481S) (Homo sapiens, UniProt Q06187, C481S).
T1 construct: purchased SignalChem B10-12CH
Kind of series: Kinase assay of BTK (C481S), [33P]-ATP filter-binding, at Reaction Biology Corporation. It is filed as biochemical. The conditions noted are these: 10 μM ATP, 20 min preincubation, 120 min reaction. On the procedure: The kinase activity of BTK (C481S) was assayed at Reaction Biology Corporation. The substrate in the BTK (C481S) reaction, pEY (poly[Glu:Tyr] (4:1)) (Sigma, Cat. #P7244-250MG), was prepared in fresh reaction buffer (20 mM Hepes (pH 7.5), 10 mM MgCl2, 1 mM EGTA, 0.02% Brij35, 0.02 mg/ml BSA, 0.1 mM Na3VO4, 2 mM DTT, 1% DMSO). BTK(C481S) (SignalChem, Cat. #B10-12CH) was delivered into the substrate solution and mixed gently. The final concentrations of BTK (C481S) and the substrate in the reaction mixture were 6 nM and 0.2 mg/ml, respectively. Compounds were tested in 10-point concentration/response mode with 3-fold serial dilution steps starting at 1 μM.
Compounds in 100% DMSO were delivered into the kinase reaction mixture by acoustic liquid delivery technology (Echo550; nanoliter range) and incubated for 20 min at room temperature. 10 μM [^33P]-ATP (ATP: Sigma, Cat #: A7699; [^33P]-ATP: Hartmann Analytic, Cat #: SCF-301-12) was delivered into the reaction mixture to initiate the reaction. The mixture was incubated for 120 min at room temperature. Radioactivity was detected utilizing a proprietary filter-binding method. Kinase activity data were expressed as the percent remaining kinase activity in test samples compared to vehicle (DMSO) reactions. IC50 values were obtained using GraphPad Prism software.
Select compounds prepared as described above were assayed according to the biological procedures described herein.

For the next series, the system named is DOHH2 cells. The experiment in a line: Cell proliferation assay in DOHH2 cells (MTS). It is filed as cell-based. The conditions noted are these: Homo sapiens, DOHH-2, 120 h. The gist of the method: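 DOHH2 cells at 5000/well were treated with compound at 1.5–10000 nM for 120 h at 37 °C, as a proxy for BTK inhibition. Proliferation was read by MTS for 2 h, stopped with SDS, and absorbance measured at 490 nm with 650 nm reference; IC50 was fitted from the curve.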

Series [1] in a line: Pharmacokinetics in male Sprague-Dawley rats. It is filed as in vivo. The conditions noted are these: rat; for Cmax: read-out: Cmax/C0; for MRT last: read-out: MRT0-t. As to the method: The purpose of this study was to determine the pharmacokinetics of Example 71 and Example 75 in male Sprague-Dawley rats (Supplied by Beijing Vital River Laboratory Animal Technology Co., Ltd.).
Animals in Group 1 were administered with Example 71 by single intravenous bolus injection at 1 mg/kg, which was formulated in 60% Phosal 50 PG (Lipoid, Batch #368315-3180028/009): 30% PEG400 (Sigma, Batch #MKCH6281): 10% Ethanol (Merck, Batch #K48244883634) at 1 mg/mL as a solution. Animals in Group 2 were administered with Example 71 by single oral gavage (PO) administration at 5 mg/kg, which was formulated in 60% Phosal 50 PG (Lipoid, Batch #368315-3180028/009): 30% PEG400 (Sigma, Batch #MKCH6281): 10% Ethanol (Merck, Batch #K48244883634) at 1 mg/mL as a solution. Blood samples were collected at 0.083, 0.25, 0.5, 1, 2, 4, 8, 12 and 24 hours post-dose. Concentrations of Example 71 in plasma were determined by LC/MS/MS (LC: Waters UPLC; MS: API4000).
Animals in Group 3 were administered with Example 75 by single intravenous bolus injection at 2 mg/kg, which was formulated in 10% DMSO (Sigma, Batch #LPC0S181): 60% PEG400 (Sigma, Batch #MKCH6281): 30% water at 2 mg/mL as a solution. Animals in Group 4 were administered with Example 75 by single oral gavage (PO) administration at 10 mg/kg, which was formulated in 10% DMSO (Sigma, Batch #LPC0S181): 60% PEG400 (Sigma, Batch #MKCH6281): 30% water at 2 mg/mL as a solution. Blood samples were collected at 0.083, 0.25, 0.5, 1, 2, 4, 8, 12 and 24 hours post-dose. Concentrations of Example 75 in plasma were determined by LC/MS/MS (LC: Waters UPLC; MS: Triple Quad 6500 plus).

[2] abbreviates: male, Sprague-Dawley, plasma, iv, 2 mg/kg.
[3] abbreviates: male, Sprague-Dawley, plasma, po, 10 mg/kg.

Read-outs that look alike come from different tables or passages of the source.

T1 sequence (Q06187 whole entry C481S): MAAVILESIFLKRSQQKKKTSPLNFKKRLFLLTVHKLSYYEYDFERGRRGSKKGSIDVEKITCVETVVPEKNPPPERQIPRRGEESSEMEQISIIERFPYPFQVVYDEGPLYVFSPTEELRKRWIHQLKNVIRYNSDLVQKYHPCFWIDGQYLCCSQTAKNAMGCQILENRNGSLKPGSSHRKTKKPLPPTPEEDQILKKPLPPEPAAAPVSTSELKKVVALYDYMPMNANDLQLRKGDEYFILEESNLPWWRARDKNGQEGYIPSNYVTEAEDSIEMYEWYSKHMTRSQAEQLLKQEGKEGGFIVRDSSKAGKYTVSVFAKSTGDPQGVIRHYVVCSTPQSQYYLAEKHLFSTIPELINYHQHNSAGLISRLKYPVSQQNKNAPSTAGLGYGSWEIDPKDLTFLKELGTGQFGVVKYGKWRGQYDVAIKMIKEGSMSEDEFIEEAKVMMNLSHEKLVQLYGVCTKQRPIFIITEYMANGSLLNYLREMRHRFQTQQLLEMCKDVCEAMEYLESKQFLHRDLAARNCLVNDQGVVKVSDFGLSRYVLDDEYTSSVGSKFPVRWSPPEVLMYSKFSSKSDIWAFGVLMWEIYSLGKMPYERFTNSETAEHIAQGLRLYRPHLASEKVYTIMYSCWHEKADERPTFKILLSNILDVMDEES

On to `O=C(c1ccc(Oc2ccccc2)cc1Cl)c1c[nH]c2nccc(N[C@@H]3CC[C@@H](CO)OC3)c12` [Example 2, (2-Chloro-4-phenoxyphenyl)(4-(((3R,6S)-6-(hydroxymethyl)tetrahydro-2H-pyran-3-yl)amino)-1H-pyrrolo[2,3-b]pyridin-3-yl)methanone], for which the IC50 was determined as 2.22 nM on BTK (C481S) and 26 nM with DOHH2 cells.
As for `COc1cnc2[nH]cc(C(=O)c3ccc(Oc4ccccc4)cc3Cl)c2c1N[C@@H]1CC[C@@H](CO)OC1` [Example 27, (2-chloro-4-phenoxyphenyl)(4-(((3R,6S)-6-(hydroxymethyl)tetrahydro-2H-pyran-3-yl)amino)-5-methoxy-1H-pyrrolo[2,3-b]pyridin-3-yl)methanone], the figures for the IC50 on BTK (C481S) and in the series on DOHH2 cells were 1.12 nM and 1 nM, respectively.
With `CCOc1cnc2[nH]cc(C(=O)c3ccc(Oc4ccccc4F)cc3)c2c1N[C@@H]1CC[C@@H](CO)OC1` [Example 63, (5-ethoxy-4-(((3R,6S)-6-(hydroxymethyl)tetrahydro-2H-pyran-3-yl)amino)-1H-pyrrolo[2,3-b]pyridin-3-yl)(4-(2-fluorophenoxy)phenyl)methanone], the IC50 at BTK (C481S) and in the series on DOHH2 cells was 1 nM throughout.
`COc1cnc2[nH]cc(C(=O)c3ccc(Oc4ccccc4F)cc3F)c2c1N[C@@H]1CC[C@@H](CO)OC1` [Example 75, (2-fluoro-4-(2-fluorophenoxy)phenyl)(4-(((3R,6S)-6-(hydroxymethyl)tetrahydro-2H-pyran-3-yl)amino)-5-methoxy-1H-pyrrolo[2,3-b]pyridin-3-yl)methanone] registered an IC50 with DOHH2 cells of 1 nM. In series [1] (setting [2]), this molecule had an AUC(0-inf) of 10200 ng·h/mL, an AUC(0-t) of 10100 ng·h/mL, a clearance of 3.33 mL/min/kg and a half-life of 2.56 h. Also, in series [1] (setting [2]), the Cmax was determined as 6350 ng/mL and the MRT last turned out to be 2.43 h. Also, the Vd in series [1] (male, Sprague-Dawley, plasma, iv, 2 mg/kg, read-out: Vdss) is 0.489 L/kg. Moreover, in series [1] (setting [3]), the total exposure AUC(0-inf) came to 29000 ng·h/mL, the exposure AUC(0-t) amounted to 28900 ng·h/mL, the Tmax was 2.83 h and the half-life was 2.8 h. Further, in series [1] (setting [3]), the Cmax amounted to 4140 ng/mL and the MRT last is 5.58 h. This molecule also returned a F in series [1] (po 10 mg/kg vs iv 2 mg/kg) of 57.1%.
Regarding `CCOc1cnc2[nH]cc(C(=O)c3ccc(Oc4ccccc4)cc3C)c2c1N[C@@H]1CC[C@@H](CO)OC1` [Example 127, (5-ethoxy-4-(((3R,6S)-6-(hydroxymethyl)tetrahydro-2H-pyran-3-yl)amino)-1H-pyrrolo[2,3-b]pyridin-3-yl)(2-methyl-4-phenoxyphenyl)methanone], the half-inhibitory concentration (IC50) at BTK (C481S) was 0.959 nM; in the series on DOHH2 cells, 1 nM.
For the molecule `CCOc1cnc2[nH]cc(C(=O)c3ccc(Oc4ccccc4)cc3Cl)c2c1N[C@@H]1CC[C@@H](CO)OC1` [Example 128, (2-chloro-4-phenoxyphenyl)(5-ethoxy-4-(((3R,6S)-6-(hydroxymethyl)tetrahydro-2H-pyran-3-yl)amino)-1H-pyrrolo[2,3-b]pyridin-3-yl)methanone], the IC50 on BTK (C481S) was determined as 0.972 nM; in the series with DOHH2 cells, 1 nM.
As to `CCOc1cnc2[nH]cc(C(=O)c3ccc(Oc4ccccc4)cc3F)c2c1N[C@@H]1CC[C@@H](CO)OC1` [Example 176, (5-ethoxy-4-(((3R,6S)-6-(hydroxymethyl)tetrahydro-2H-pyran-3-yl)amino)-1H-pyrrolo[2,3-b]pyridin-3-yl)(2-fluoro-4-phenoxyphenyl)methanone], the IC50 turned out to be 0.455 nM at BTK (C481S) and 1 nM in the series with DOHH2 cells.

What is called IC50 is the concentration that inhibits the measured activity by half. Usually AUC(0-inf) stands for the area under the concentration-time curve extrapolated to infinity. The term AUC(0-t) denotes exposure summed from dosing to a finite time, without extrapolation to infinity. A lower AUC(0-t) goes with low exposure. What is called clearance is the volume of plasma or blood freed of the substance per unit of time. The low end stands for a low capacity for elimination, the high end for a high capacity for elimination. Usually half-life stands for how long it takes for the measured level to halve. A high value points to slow loss. What is called Tmax is the time from dosing to the highest level.

The record behind these values is patent US20220235049A1, “SUBSTITUTED PYRROLO [2, 3-b] PYRIDINE AND PYRAZOLO [3,4-b] PYRIDINE DERIVATIVES AS PROTEIN KINASE INHIBITORS” (Fochon Pharmaceuticals, Ltd., priority 2019, published 2022).
